Each structure is given as a SMILES string.

For one assay, the system named is HCT116 MTAP KO cells. As to the kind of experiment: Inhibitory activity against cell proliferation (CellTiter Glo, 6 days), HCT116 MTAP KO. Format: cell-based. The settings on record: for IC50: Homo sapiens, HCT-116, 144 h, HCT116 MTAP KO cells, 6 days, CellTiter Glo, read-out: HCT116 MTAP KO IC50; for Selectivity HCT 116-WT/ HCT116 MTAP KO: ratio of IC50 HCT116-WT / HCT116 MTAP KO. As to the method:
(§1) HCT116-WT (ATCC, CCL-247) and HCT116 MTAP KO (Nanjing Cobioer, CBP75002) cells were seeded into white low-transparency sterile 96-well cell culture plates at a density of 250 cells per well respectively, and the culture medium was McCoy's 5A Medium+10% FBS. The plates were placed under the condition of 37°C and 5% CO2 to be cultured overnight. The cells were treated with 4-fold serially diluted compounds of 8 concentration points starting at an initial concentration of 10000 nM, and the last two columns were used as control wells to which only DMSO was added. The drug-treated cells were further cultured for 6 days. On day 7, CellTiter Glo® reagent was added at 50 uL per well, and after reaction under shaking for 10 minutes at room temperature, the chemiluminescence signals were detected for the well plates through the chemiluminescence detection method using a BIOTEK H1 multifunctional microplate-reader. The IC50 values for inhibition of the compounds on cell viability were calculated in X1fit 5.0 software. Table 2. IC50 values for inhibition of the compounds on HCT116 MTAP KO/WT cell growth

The subject of a further assay is HCT116-WT cells. As to the kind of experiment: Inhibitory activity against cell proliferation (CellTiter Glo, 6 days), HCT116-WT. The class given is cell-based. The conditions noted are these: 144 h, HCT116-WT cells, 6 days, CellTiter Glo; read-out: HCT116-WT IC50. As to the method: as §1
On the technique in general: In ATP-based viability assays light output follows the ATP content of the culture.

Turning to `Cc1cc2cc(C(=O)N(Cc3ccc(C(C)(C)F)cn3)N(C)c3ncccn3)ccc2nc1N` [Example 288, 2-amino-N-((5-(2-fluoroprop-2-yl)pyridin-2-yl)methyl)-N',3-dimethyl-N'-(pyrimidin-2-yl)quinoline-6-carbohydrazide], the concentration for half-maximal inhibition (IC50) amounted to 66 nM in the assay on HCT116 MTAP KO cells and 1910 nM in the assay on HCT116-WT cells. For the same compound, in the assay on HCT116 MTAP KO cells, the “Selectivity HCT 116-WT/ HCT116 MTAP KO” value amounted to 28.91.
For `Cc1cc2cc(C(=O)N(Cc3ccc4sc(C5=CCN(C)CC5)nc4c3)N(C)c3ncccn3)ccc2nc1N` [Example 195, 2-amino-N',3-dimethyl-N-((2-(1-methyl-1,2,3,6-tetrahydropyridin-4-yl)benzo[d]thiazol-5-yl)methyl)-N'-(pyrimidin-2-yl)qui noline-6-carbohydrazide] the same measures were 216 nM, 3140 nM and 14.53.
For `Cc1cc2cc(C(=O)N(Cc3ccc4sc(C5CCN(C)CC5)nc4c3)N(C)c3ncccn3)ccc2nc1N` [Example 219] the same measures were 216 nM, 3140 nM and 14.53.
Regarding `Cc1cc2nc(N)c3cnn(C)c3c2cc1C(=O)N1CCCN1c1ncc(-c2ccsc2)cc1F` [Example 483, (4-amino-1,7-dimethyl-1H-pyrazolo[4,3-c]quinolin-8-yl)(2-(3-fluoro-5-(thien-3-yl)pyridin-2-yl)pyrazolidin-1-yl)methanone], the IC50 was determined as 100 nM in the assay with HCT116 MTAP KO cells and 4170 nM with HCT116-WT cells. Besides, in the assay with HCT116 MTAP KO cells, the “Selectivity HCT 116-WT/ HCT116 MTAP KO” value is recorded as 41.72.
The matching figures for `Cc1cc2nc(N)c3cnn(C)c3c2cc1C(=O)N1CCCN1c1ncc(C2=CCN(C)CC2)cc1F` [Example 470, (4-amino-1,7-dimethyl-1H-pyrazolo[4,3-c]quinolin-8-yl)(2-(5-fluoro-1'-methyl-1', 2',3',6'-tetrahydro-[3,4'-bipyridine]-6-yl)pyrazolidin-1-yl)methanone]: 94 nM, 3040 nM and 32.33.
The matching figures for `COC1CN(C(=O)c2cc3c(cc2C)nc(N)c2cnn(C)c23)N(c2ncc(Br)cc2F)C1` (stereo not drawn) [Example 438, (4-amino-1,7-dimethyl-1H-pyrazolo[4,3-c]quinolin-8-yl)(2-(5-bromo-3-fluoropyridin-2-yl)-4-methoxypyrazolidin-1-yl)met hanone]: 40 nM, 1510 nM and 37.65.
Consider `Cc1cc2nc(N)c3cnn(C)c3c2cc1C(=O)N1CCCN1c1ncc(-c2cnn(C)c2)cc1F` [Example 471, (4-amino-1,7-dimethyl-1H-pyrazolo[4,3-c]quinolin-8-yl)(2-(3-fluoro-5-(1-methyl-1H-pyrazol-4-yl)pyridin-2-yl)pyrazolidin-1-yl)methanone], for which, in the assay on HCT116 MTAP KO cells, the IC50 worked out at 97 nM and the “Selectivity HCT 116-WT/ HCT116 MTAP KO” value is on record as 60.37. The concentration for half-maximal inhibition (IC50) with HCT116-WT cells came to 5860 nM.
For `Cc1cc2cc(C(=O)N(Cc3ccc(-c4ccc(N(C)CCN(C)C)nc4)cn3)N(C)c3ncccn3)ccc2nc1N` [Example 260, 2-amino-N-((6'-((2-(dimethylamino)ethyl)(methyl)amino)-[3,3'-bipyridine]-6-yl)methyl) -N', 3-dimethyl-N'-(pyrimidin-2-yl)quinoline-6-carbohydrazide] the same measures were 21 nM, 22.14 and 465 nM.
The matching figures for `Cc1cc2cc(C(=O)N(Cc3ccc(-c4ccns4)cn3)N(C)c3ncccn3)ccc2nc1N` [Example 210, 2-amino-N-((5-(isothiazol-5-yl)pyridin-2-yl)methyl)-N',3-dimethyl-N'-(pyrimidin-2-yl)quinoline-6-carbohydrazide]: 25 nM, 19.68 and 492 nM.
For `Cc1cc2cc(C(=O)N(Cc3ccc(-c4cn(C)cn4)cn3)N(C)c3ncccn3)ccc2nc1N` [Example 194, 2-amino-N',3-dimethyl-N-((5-(1-methyl-1H-imidazol-4-yl)pyridin-2-yl)methyl)-N '-(pyrimidin-2-yl)quinoline-6-carbohydrazide] the same measures were 257 nM, 16.46 and 4230 nM.
On to `[2H]C([2H])([2H])c1cc2cc(C(=O)N(Cc3ccc(C(F)(F)F)cn3)N(C)c3ncccc3F)ccc2nc1N` [Example 309, 2-amino-N'-(3-fluoropyridin-2-yl)-N'-methyl-3-(methyl-d3)-N-((5-(trifluoromethyl)pyridin-2-yl)methyl)quinoline-6-carbohydrazide], for which, in the assay on HCT116 MTAP KO cells, the IC50 was found to be 30 nM and the “Selectivity HCT 116-WT/ HCT116 MTAP KO” value was found to be 15.53. The IC50 with HCT116-WT cells worked out at 466 nM.
The matching figures for `Cc1cc2cc(C(=O)N(Cc3ccc(-c4cnoc4)cn3)N(C)c3ncccn3)ccc2nc1N` [Example 182, 2-amino-N-((5-(isoxazol-4-yl)pyridin-2-yl)methyl)-N',3-dimethyl-N'-(pyrimidin-2-yl)quinoline-6-carbohydrazide]: 131 nM, 25.89 and 3390 nM.
For `Cc1cc2cc(C(=O)N(Cc3ccc(-c4cc[nH]c(=O)c4)cn3)N(C)c3ncccn3)ccc2nc1N` [Example 138, 2-amino-N',3-dimethyl-N-((2'-oxo-1',2'-dihydro-[3,4'-bipyridine]-6-yl)methyl)-N'-(pyrimidin-2-yl)quinoline-6-carbohydrazide] the same measures were 290 nM, 11.79 and 3420 nM.
For `Cc1cc2cc(C(=O)N(Cc3ccc(-c4nc(C#N)cs4)cn3)N(C)c3ncccn3)ccc2nc1N` [Example 230, 2-amino-N-((5-(4-cyanothiazol-2-yl)pyridin-2-yl)methyl)-N',3-dimethyl-N'-(pyrimidin-2-yl)quinoline-6-carbohydrazide] the same measures were 27 nM, 10.33 and 279 nM.
For the compound `Cc1cc2cc(C(=O)N(Cc3ccc(-c4ccc(N(C)C)nc4)cn3)N(C)c3ncccn3)ccc2nc1N` [Example 212, 2-amino-N-((6'-(dimethylamino)-[3,3'-bipyridine]-6-yl)methyl)-N',3-dimethyl-N'-(pyrimidin-2-yl)quinoline-6-carbohydrazide], the IC50 in the assay with HCT116 MTAP KO cells worked out at 30 nM; in the assay with HCT116-WT cells, 646 nM. In addition, the “Selectivity HCT 116-WT/ HCT116 MTAP KO” value in the assay with HCT116 MTAP KO cells stood at 21.53.
For `Cc1cc2cc(C(=O)N(Cc3ccc(-c4cnn(C(F)(F)F)c4)cn3)N(C)c3ncccc3F)ccc2nc1N` [Example 170, 2-amino-N'-(3-fluoropyridin-2-yl)-N ',3-dimethyl-N-((5-(1-(trifluoromethyl)-1 H-pyrazol-4-yl)pyridin-2-yl)methyl)quin oline-6-carbohydrazide] the same measures were 35 nM, 640 nM and 18.29.
For `Cc1cc2cc(C(=O)N(Cc3ccc(-c4cnn(C(C)(C)C)c4)cn3)N(C)c3ncccn3)ccc2nc1N` [Example 205, 2-amino-N-((5-(1-(tert-butyl)-1H-pyrazol-4-yl)pyridin-2-yl)methyl)-N',3-dimethyl-N'-(pyrimidin-2-yl)quinoline-6-carbohydr azide] the same measures were 58 nM, 1170 nM and 20.14.

Usually IC50 stands for the concentration that gives 50% inhibition.

For the origin of these results see EP4745134A1 (Jiangsu Yahong Meditech Co., Ltd., priority 2023, dated 2025).
